BindingDB's records for patent US8969325 (Abbvie, 2015)

Biological target: Transient receptor potential cation channel subfamily V member 1 (Homo sapiens, UniProt Q8NER1)
Assay: Activation Assay
Description: Expression plasmids encoding the hTRPV1 cDNA were transfected into HEK293 cells using Lipofectamine. Forty-eight hours after transfection, the neomycin-resistant cells were selected with growth medium containing 800 ug/mL Geneticin (Life Technologies, formerly Gibco BRL). Surviving individual colonies were isolated and screened for TRPV1 activity.

Sequence of Transient receptor potential cation channel subfamily V member 1 (Q8NER1 whole entry): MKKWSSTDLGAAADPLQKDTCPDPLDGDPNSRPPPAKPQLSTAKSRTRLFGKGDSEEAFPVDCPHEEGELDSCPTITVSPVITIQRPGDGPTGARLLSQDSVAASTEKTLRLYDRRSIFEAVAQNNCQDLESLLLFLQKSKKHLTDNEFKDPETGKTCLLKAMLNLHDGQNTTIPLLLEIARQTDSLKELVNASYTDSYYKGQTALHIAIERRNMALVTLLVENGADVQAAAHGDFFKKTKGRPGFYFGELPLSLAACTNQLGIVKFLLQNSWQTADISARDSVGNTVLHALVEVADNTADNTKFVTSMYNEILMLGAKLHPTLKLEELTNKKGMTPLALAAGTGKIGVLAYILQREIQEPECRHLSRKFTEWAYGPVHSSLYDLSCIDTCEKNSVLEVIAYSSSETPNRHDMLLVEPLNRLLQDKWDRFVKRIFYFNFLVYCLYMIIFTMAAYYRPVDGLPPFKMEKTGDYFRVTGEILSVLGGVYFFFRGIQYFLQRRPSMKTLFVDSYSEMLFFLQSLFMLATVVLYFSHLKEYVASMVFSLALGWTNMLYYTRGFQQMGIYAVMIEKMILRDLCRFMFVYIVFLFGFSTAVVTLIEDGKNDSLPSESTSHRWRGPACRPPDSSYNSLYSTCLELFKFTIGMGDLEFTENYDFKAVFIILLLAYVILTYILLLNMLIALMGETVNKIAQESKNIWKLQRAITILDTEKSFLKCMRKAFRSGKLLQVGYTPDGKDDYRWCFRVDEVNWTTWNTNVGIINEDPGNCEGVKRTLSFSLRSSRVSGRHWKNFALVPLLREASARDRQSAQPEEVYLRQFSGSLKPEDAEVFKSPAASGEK

- IC50: 21 nM
Structure (SMILES): CN1C(=O)NCc2c(NC(=O)N[C@@H]3CC(C)(C(F)F)Oc4cc(Cl)ccc43)cccc21 (stereo partly specified) [US8969325, 136]
